Measured values: DBAASP
In brackets after ≈: the same amount, converted by molar mass.

Columns and labels:
Assay in all cases: ≥ marks a high value that may be exact or a test limit, other limits are often not marked, values filed in µg/mL are converted to µM
[1] = test system: Citrobacter freundii DSM 30029
Shigella sonnei DSM 5570 = test system: Shigella sonnei DSM 5570
[2] = test system: Acinetobacter baumannii AL1851-ΔLpxA
[3] = test system: Acinetobacter baumannii ATCC 19606
[4] = test system: Acinetobacter baumannii Al1852-ΔLpxD
[5] = test system: Staphylococcus epidermidis DSM 28319
[6] = test system: Pseudomonas aeruginosa DSM 1117
[7] = test system: Staphylococcus aureus DSM 11729
[8] = test system: Escherichia coli DSM 1103
[9] = test system: Salmonella enterica DSM 17058
[10] = test system: Klebsiella pneumoniae DSM 789
Staphylococcus aureus = test system: Staphylococcus aureus
[11] = test system: Trichophyton rubrum ATCC 28189
[12] = test system: Candida albicans ATCC 24433
Escherichia coli = test system: Escherichia coli
[13] = test system: Candida parapsilosis ATCC 22019
[14] = test system: Serratia marcescens ATCC 4112
[15] = test system: Enterobacter cloacae beta-12
Candida albicans MDM8 = test system: Candida albicans MDM8
[16] = test system: Bacillus subtilis ATCC 6633
Micrococcus luteus A270 = test system: Micrococcus luteus A270
[17] = test system: Candida tropicalis IOC 4560
Escherichia coli SBS 363 = test system: Escherichia coli SBS 363
[18] = test system: Bacillus megaterium ATCC 10778
[19] = test system: Staphylococcus aureus ATCC 29213
[20] = test system: Pseudomonas aeruginosa NCIB 10421
[21] = test system: Staphylococcus aureus NBRC 13276
[22] = test system: Pseudomonas aeruginosa NBRC 13275
[23] = test system: Escherichia coli DH5alpha
[24] = test system: Staphylococcus epidermidis NBRC 12298
[25] = test system: Escherichia coli ATCC 25922
[26] = test system: Staphylococcus aureus M838-17
Escherichia coli E416-17 = test system: Escherichia coli E416-17
[27] = test system: Staphylococcus aureus USA 300
Escherichia coli E423-17 = test system: Escherichia coli E423-17
Escherichia coli K-12 = test system: Escherichia coli K-12
[28] = test system: Micrococcus luteus ATCC 49732
[29] = test system: Aeromonas hydrophila ATCC 35654
[30] = test system: Staphylococcus aureus ATCC 25923
[31] = test system: Pseudomonas aeruginosa PA214
[32] = test system: Pseudomonas aeruginosa PAO1
[33] = test system: Pseudomonas aeruginosa PA330

For CC[C@H](C)[C@H](NC(=O)[C@H](CC(=O)O)NC(=O)[C@H](Cc1c[nH]c2ccccc12)NC(=O)[C@H](CCCCN)NC(=O)[C@@H]1CCCN1C(=O)[C@H](CC(C)C)NC(=O)[C@H](CCSC)NC(=O)[C@H](Cc1ccc(O)cc1)NC(=O)[C@H](CC(C)C)NC(=O)[C@H](CC(N)=O)NC(=O)[C@@H](NC(=O)CN)[C@@H](C)O)C(=O)N1CCC[C@H]1C(N)=O [GTNLYMLPKWDIP], the MIC [1] was 4 µM (≈ 6.19 µg/mL), the MIC (Shigella sonnei DSM 5570) was 2 µM (≈ 3.09 µg/mL) and the MIC [2] was 16 µM (≈ 24.7 µg/mL). For the same compound, the MIC [3] was 32 µM (≈ 49.5 µg/mL), the MIC [4] was ≥ 32 µM and the MIC [5] was 0.5 µM (≈ 0.773 µg/mL). For the same compound, the MIC [6] was 1 µM (≈ 1.55 µg/mL), the MIC [7] was 16 µM (≈ 24.7 µg/mL) and the MIC [8] was 8 µM (≈ 12.4 µg/mL). The MIC [9] was 16 µM (≈ 24.7 µg/mL) and the MIC [10] was ≥ 32 µM.

With CC[C@H](C)[C@H](NC(=O)[C@H](CCCCN)NC(=O)[C@H](CCC(=O)O)NC(=O)[C@H](CO)NC(=O)[C@H](CCCN=C(N)N)NC(=O)[C@@H](N)CO)C(=O)N[C@H](C(=O)N[C@@H](Cc1cnc[nH]1)C(=O)N[C@@H](CCC(N)=O)C(=O)N[C@@H](CC(C)C)C(=O)N[C@@H](Cc1ccccc1)C(N)=O)C(C)C [SRSEKIVHQLF] the MIC (Staphylococcus aureus) was > 298 µM, the MIC [11] was ≥ 298 µM and the MIC [12] was ≥ 298 µM. For the same compound, the MIC (Escherichia coli) was > 298 µM and the MIC [13] was ≥ 298 µM.

CC[C@H](C)[C@H](NC(=O)CNC(=O)[C@H](CCC(=O)O)NC(=O)[C@H](Cc1c[nH]c2ccccc12)NC(=O)[C@@H](NC(=O)[C@H](CCCCN)NC(=O)CNC(=O)[C@H](CC(C)C)NC(=O)[C@@H](N)Cc1c[nH]c2ccccc12)[C@@H](C)CC)C(=O)N[C@@H](CCCCN)C(=O)N[C@@H](CO)C(=O)N[C@@H](CC(C)C)C(=O)N[C@@H](Cc1ccccc1)C(N)=O [WLGKIWEGIKSLF] gave an MIC [14] of 0.78 µM (≈ 1.23 µg/mL), an MIC [15] of 12.5 µM (≈ 19.7 µg/mL) and an MIC (Candida albicans MDM8) of 3.13 µM (≈ 4.93 µg/mL). It also gave an MIC [16] of 0.78 µM (≈ 1.23 µg/mL), an MIC (Micrococcus luteus A270) of 0.78 µM (≈ 1.23 µg/mL) and an MIC [17] of 1.56 µM (≈ 2.46 µg/mL). For the same compound, the MIC (Escherichia coli SBS 363) was 1.56 µM (≈ 2.46 µg/mL), the MIC [18] was 0.78 µM (≈ 1.23 µg/mL) and the MIC [19] was 1.6 µM (≈ 2.52 µg/mL). For the same compound, the MIC [20] was 12.5 µM (≈ 19.7 µg/mL).

CC[C@H](C)[C@H](NC(=O)CN)C(=O)N[C@@H](CCCCN)C(=O)N[C@@H](CCCCN)C(=O)N[C@@H](Cc1ccccc1)C(=O)N[C@@H](CC(C)C)C(=O)N[C@@H](CCCCN)C(=O)N[C@@H](CO)C(=O)N[C@@H](C)C(=O)N[C@@H](CCCCN)C(=O)N[C@@H](CCCCN)C(=O)N[C@@H](Cc1ccccc1)C(=O)N[C@H](C(=O)N[C@@H](CCCCN)C(=O)N[C@@H](C)C(=O)N[C@@H](Cc1ccccc1)C(=O)N[C@@H](CCCCN)C(N)=O)C(C)C [GIKKFLKSAKKFVKAFK] showed an MIC [21] of 6.25 µM (≈ 12.3 µg/mL), an MIC [22] of 1.56 µM (≈ 3.07 µg/mL) and an MIC [23] of 3.12 µM (≈ 6.15 µg/mL). It also gave an MIC [24] of 3.12 µM (≈ 6.15 µg/mL).

With CC(C)C[C@H](NC(=O)[C@H](Cc1c[nH]c2ccccc12)NC(=O)[C@H](Cc1c[nH]c2ccccc12)NC(=O)[C@@H](N)Cc1c[nH]c2ccccc12)C(=O)N[C@@H](CCCN=C(N)N)C(=O)N[C@@H](CCCN=C(N)N)C(=O)N[C@@H](CCCN=C(N)N)C(=O)N[C@@H](Cc1c[nH]c2ccccc12)C(=O)O [WWWLRRRW] the MIC [25] was 16 µM (≈ 21.5 µg/mL), the MIC [26] was 4 µM (≈ 5.38 µg/mL) and the MIC (Escherichia coli E416-17) was 16 µM (≈ 21.5 µg/mL). For the same compound, the MIC [27] was 4 µM (≈ 5.38 µg/mL), the MIC (Escherichia coli E423-17) was ≥ 32 µM and the MIC (Escherichia coli K-12) was 16 µM (≈ 21.5 µg/mL).

Compound CC[C@H](C)[C@H](NC(=O)[C@H](CC(C)C)NC(=O)[C@H](CCC(N)=O)NC(=O)[C@@H](NC(=O)[C@H](CCCN=C(N)N)NC(=O)[C@@H](NC(=O)[C@H](CS)NC(=O)[C@H](CCCCN)NC(=O)[C@@H](N)CCCN=C(N)N)C(C)C)C(C)C)C(=O)N[C@@H](CCCCN)C(=O)N[C@@H](CC(N)=O)C(=O)NCC(=O)N[C@@H](CCCCN)C(=O)N[C@@H](CCCCN)C(=O)N[C@H](C(=O)N[C@H](C(=O)N[C@@H](C)C(=O)N[C@@H](Cc1ccccc1)C(N)=O)[C@@H](C)O)[C@@H](C)CC [RKCVRVQLIKNGKKITAF] has an MIC [25] of 8.4 µM (≈ 17.7 µg/mL), an MIC [28] of 7.2 µM (≈ 15.1 µg/mL) and an MIC [29] of 8.4 µM (≈ 17.7 µg/mL). The MIC [30] was 7.2 µM (≈ 15.1 µg/mL).

In the case of CC(C)C[C@H](NC(=O)[C@H](C)NC(=O)[C@H](CCCCN)NC(=O)[C@H](Cc1ccccc1)NC(=O)[C@H](CC(C)C)NC(=O)[C@H](CCCCN)NC(=O)[C@H](C)NC(=O)[C@H](Cc1c[nH]c2ccccc12)NC(=O)[C@H](C)NC(=O)[C@H](CCCCN)NC(=O)[C@H](CC(C)C)NC(=O)[C@H](Cc1ccccc1)NC(=O)[C@H](CCCCN)NC(=O)[C@H](CCCCN)NC(=O)[C@H](CC(C)C)NC(=O)[C@H](C)NC(=O)[C@@H](N)CCCCN)C(N)=O [KALKKFLKAWAKLFKAL], the MIC [31] is reported as 3.1 µM (≈ 6.21 µg/mL), the MIC [32] is reported as 3.1 µM (≈ 6.21 µg/mL) and the MIC [33] is reported as 6.3 µM (≈ 12.6 µg/mL). It also gave an MIC (Escherichia coli K-12) of 1.6 µM (≈ 3.21 µg/mL).
